Molecular target: T1, μ-opioid receptor (Rattus norvegicus, UniProt P33535)
T1 construct: from tissue; host or cells: rat (Sprague Dawley) thalamic membranes
Experiment: Stimulation of [35S]GTPγS binding to rat thalamic membranes (receptor activation of G proteins)
Assay type: biochemical, Rat (Sprague Dawley)

T1 sequence (P33535 whole entry): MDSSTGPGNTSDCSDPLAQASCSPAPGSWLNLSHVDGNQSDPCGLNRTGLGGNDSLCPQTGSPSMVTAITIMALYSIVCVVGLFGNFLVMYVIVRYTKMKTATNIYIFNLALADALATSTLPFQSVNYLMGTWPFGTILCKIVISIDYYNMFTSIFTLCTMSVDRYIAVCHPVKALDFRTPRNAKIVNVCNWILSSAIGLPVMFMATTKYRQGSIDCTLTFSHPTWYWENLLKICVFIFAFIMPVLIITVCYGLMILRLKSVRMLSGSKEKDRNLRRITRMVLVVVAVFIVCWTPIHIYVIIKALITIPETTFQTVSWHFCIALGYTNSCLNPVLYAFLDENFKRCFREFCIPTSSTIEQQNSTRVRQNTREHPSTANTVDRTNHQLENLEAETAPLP

| Structure (SMILES) | stimulation of [35S]GTPγS binding (even at concentrations above 100 μM) | agonist efficacy at the μ-opioid receptor (conclusion from [35S]GTPγS binding results) | level of [35S]GTPγS binding stimulated vs maximal number of binding sites occupied after DAMGO stimulation (relative to DAMGO stimulation of G proteins) |
| --- | --- | --- | --- |
| CC[C@H]1C[C@H]2C[C@H]3c4[nH]c5ccc(OC)cc5c4CCN(C2)C13 [Ibogaine] | weak stimulation | – | – |
| CC[C@H]1C[C@H]2C[C@H]3c4[nH]c5ccc(O)cc5c4CCN(C2)C13 [Noribogaine, 12-hydroxyibogamine] | – | full agonist | in close agreement |
